# Source: US20060140857A1, “Method of the administration of drugs with binding affinity for plasma protein and preparation to be used in the method” (NIHON MEDI-PHYSICS CO., LTD., priority 1999, published 2006)
# What was measured:
# human plasma protein = experiment: Displacement of 123I-IMP binding to human plasma protein; conditions: human serum, control without second drug
# [1] = Biodistribution of 123I-IMP in rat with verapamil loading; conditions: rats
# Method: The rats were decapitated at 2, 5, 10, 30 and 60 minutes after administration. Then the blood was sampled and the organs of interest were excised. After measured the weight of these specimens, the radioactivities of the blood and organs were measured. After half-life of the radioactivities were corrected, the accumulation rate (% dose/g of the tissue) was obtained.
# [2] = Free fraction of 123I-IMP in the blood of rats with verapamil loading; format: in vivo, rat
# Method: Under the same conditions as mentioned above concerning the constitution of control and testing group, timings of decapitation, and dose of drugs, administrations of the drugs and decapitations of rats were conducted, and 3-5 ml of blood per one rat was sampled.
# [3] = loaded with verapamil about 10 mg/kg, 2 Minutes
# [4] = loaded with verapamil about 10 mg/kg, 5 Minutes
# [5] = loaded with verapamil about 10 mg/kg, 10 Minutes
# [6] = loaded with verapamil about 10 mg/kg, 30 Minutes
# [7] = loaded with verapamil about 10 mg/kg, 60 Minutes
smiles,measurement,setting,value
"CC(C)NC(C)Cc1ccc(I)cc1 (centres unmarked) [123I-IMP, N-isopropyl-p-iodoamphetamine]",free of fraction of 123I-IMP (%),human plasma protein,29.29%
same,"Biodistribution of 123I-IMP, Blood","[1]; control group, 2 Minutes",0.198 ± 0.052 % Dose/g Tissue
same,"Biodistribution of 123I-IMP, Brain","[1]; control group, 2 Minutes",1.800 ± 0.418 % Dose/g Tissue
same,"Biodistribution of 123I-IMP, Heart","[1]; control group, 2 Minutes",1.949 ± 0.293 % Dose/g Tissue
same,"Biodistribution of 123I-IMP, Kidney","[1]; control group, 2 Minutes",3.406 ± 0.905 % Dose/g Tissue
same,"Biodistribution of 123I-IMP, Liver","[1]; control group, 2 Minutes",0.506 ± 0.109 % Dose/g Tissue
same,"Biodistribution of 123I-IMP, Lung","[1]; control group, 2 Minutes",11.236 ± 0.780 % Dose/g Tissue
same,"Biodistribution of 123I-IMP, Pancreas","[1]; control group, 2 Minutes",1.503 ± 0.353 % Dose/g Tissue
same,"Biodistribution of 123I-IMP, Spleen","[1]; control group, 2 Minutes",0.880 ± 0.216 % Dose/g Tissue
same,"Biodistribution of 123I-IMP, Stomach","[1]; control group, 2 Minutes",0.302 ± 0.065 % Dose/g Tissue
same,"Biodistribution of 123I-IMP, Blood","[1]; control group, 5 Minutes",0.133 ± 0.005 % Dose/g Tissue
same,"Biodistribution of 123I-IMP, Brain","[1]; control group, 5 Minutes",1.476 ± 0.225 % Dose/g Tissue
same,"Biodistribution of 123I-IMP, Heart","[1]; control group, 5 Minutes",1.014 ± 0.070 % Dose/g Tissue
same,"Biodistribution of 123I-IMP, Kidney","[1]; control group, 5 Minutes",2.285 ± 0.256 % Dose/g Tissue
same,"Biodistribution of 123I-IMP, Liver","[1]; control group, 5 Minutes",0.699 ± 0.061 % Dose/g Tissue
same,"Biodistribution of 123I-IMP, Lung","[1]; control group, 5 Minutes",9.000 ± 0.600 % Dose/g Tissue
same,"Biodistribution of 123I-IMP, Pancreas","[1]; control group, 5 Minutes",1.923 ± 0.445 % Dose/g Tissue
same,"Biodistribution of 123I-IMP, Spleen","[1]; control group, 5 Minutes",0.999 ± 0.355 % Dose/g Tissue
same,"Biodistribution of 123I-IMP, Stomach","[1]; control group, 5 Minutes",0.500 ± 0.078 % Dose/g Tissue
same,"Biodistribution of 123I-IMP, Blood","[1]; control group, 10 Minutes",0.116 ± 0.011 % Dose/g Tissue
same,"Biodistribution of 123I-IMP, Brain","[1]; control group, 10 Minutes",1.006 ± 0.379 % Dose/g Tissue
same,"Biodistribution of 123I-IMP, Heart","[1]; control group, 10 Minutes",0.631 ± 0.111 % Dose/g Tissue
same,"Biodistribution of 123I-IMP, Kidney","[1]; control group, 10 Minutes",1.303 ± 0.190 % Dose/g Tissue
same,"Biodistribution of 123I-IMP, Liver","[1]; control group, 10 Minutes",0.711 ± 0.143 % Dose/g Tissue
same,"Biodistribution of 123I-IMP, Lung","[1]; control group, 10 Minutes",6.279 ± 1.026 % Dose/g Tissue
same,"Biodistribution of 123I-IMP, Pancreas","[1]; control group, 10 Minutes",1.721 ± 0.217 % Dose/g Tissue
same,"Biodistribution of 123I-IMP, Spleen","[1]; control group, 10 Minutes",1.008 ± 0.074 % Dose/g Tissue
same,"Biodistribution of 123I-IMP, Stomach","[1]; control group, 10 Minutes",0.407 ± 0.230 % Dose/g Tissue
same,"Biodistribution of 123I-IMP, Blood","[1]; control group, 30 Minutes",0.136 ± 0.028 % Dose/g Tissue
same,"Biodistribution of 123I-IMP, Brain","[1]; control group, 30 Minutes",1.346 ± 0.345 % Dose/g Tissue
same,"Biodistribution of 123I-IMP, Heart","[1]; control group, 30 Minutes",0.524 ± 0.037 % Dose/g Tissue
same,"Biodistribution of 123I-IMP, Kidney","[1]; control group, 30 Minutes",1.359 ± 0.222 % Dose/g Tissue
same,"Biodistribution of 123I-IMP, Liver","[1]; control group, 30 Minutes",1.192 ± 0.536 % Dose/g Tissue
same,"Biodistribution of 123I-IMP, Lung","[1]; control group, 30 Minutes",5.209 ± 1.446 % Dose/g Tissue
same,"Biodistribution of 123I-IMP, Pancreas","[1]; control group, 30 Minutes",2.032 ± 0.505 % Dose/g Tissue
same,"Biodistribution of 123I-IMP, Spleen","[1]; control group, 30 Minutes",1.356 ± 0.277 % Dose/g Tissue
same,"Biodistribution of 123I-IMP, Stomach","[1]; control group, 30 Minutes",0.885 ± 0.366 % Dose/g Tissue
same,"Biodistribution of 123I-IMP, Blood","[1]; control group, 60 Minutes",0.181 ± 0.006 % Dose/g Tissue
same,"Biodistribution of 123I-IMP, Brain","[1]; control group, 60 Minutes",1.511 ± 0.011 % Dose/g Tissue
same,"Biodistribution of 123I-IMP, Heart","[1]; control group, 60 Minutes",0.540 ± 0.026 % Dose/g Tissue
same,"Biodistribution of 123I-IMP, Kidney","[1]; control group, 60 Minutes",1.585 ± 0.132 % Dose/g Tissue
same,"Biodistribution of 123I-IMP, Liver","[1]; control group, 60 Minutes",1.442 ± 0.164 % Dose/g Tissue
same,"Biodistribution of 123I-IMP, Lung","[1]; control group, 60 Minutes",5.186 ± 0.616 % Dose/g Tissue
same,"Biodistribution of 123I-IMP, Pancreas","[1]; control group, 60 Minutes",1.957 ± 0.345 % Dose/g Tissue
same,"Biodistribution of 123I-IMP, Spleen","[1]; control group, 60 Minutes",1.290 ± 0.138 % Dose/g Tissue
same,"Biodistribution of 123I-IMP, Stomach","[1]; control group, 60 Minutes",1.245 ± 0.343 % Dose/g Tissue
same,"Biodistribution of 123I-IMP, Blood",[1]; [3],0.238 ± 0.083 % Dose/g Tissue
same,"Biodistribution of 123I-IMP, Brain",[1]; [3],1.584 ± 0.425 % Dose/g Tissue
same,"Biodistribution of 123I-IMP, Heart",[1]; [3],3.769 ± 0.911 % Dose/g Tissue
same,"Biodistribution of 123I-IMP, Kidney",[1]; [3],1.424 ± 0.313 % Dose/g Tissue
same,"Biodistribution of 123I-IMP, Liver",[1]; [3],0.287 ± 0.156 % Dose/g Tissue
same,"Biodistribution of 123I-IMP, Lung",[1]; [3],9.234 ± 1.748 % Dose/g Tissue
same,"Biodistribution of 123I-IMP, Pancreas",[1]; [3],1.268 ± 0.375 % Dose/g Tissue
same,"Biodistribution of 123I-IMP, Spleen",[1]; [3],0.052 ± 0.025 % Dose/g Tissue
same,"Biodistribution of 123I-IMP, Stomach",[1]; [3],0.234 ± 0.111 % Dose/g Tissue
same,"Biodistribution of 123I-IMP, Blood",[1]; [4],0.228 ± 0.012 % Dose/g Tissue
same,"Biodistribution of 123I-IMP, Brain",[1]; [4],1.916 ± 0.131 % Dose/g Tissue
same,"Biodistribution of 123I-IMP, Heart",[1]; [4],2.260 ± 0.680 % Dose/g Tissue
same,"Biodistribution of 123I-IMP, Kidney",[1]; [4],1.278 ± 0.381 % Dose/g Tissue
same,"Biodistribution of 123I-IMP, Liver",[1]; [4],0.350 ± 0.130 % Dose/g Tissue
same,"Biodistribution of 123I-IMP, Lung",[1]; [4],8.377 ± 0.563 % Dose/g Tissue
same,"Biodistribution of 123I-IMP, Pancreas",[1]; [4],1.659 ± 0.496 % Dose/g Tissue
same,"Biodistribution of 123I-IMP, Spleen",[1]; [4],0.063 ± 0.250 % Dose/g Tissue
same,"Biodistribution of 123I-IMP, Stomach",[1]; [4],0.164 ± 0.078 % Dose/g Tissue
same,"Biodistribution of 123I-IMP, Blood",[1]; [5],0.139 ± 0.003 % Dose/g Tissue
same,"Biodistribution of 123I-IMP, Brain",[1]; [5],2.145 ± 0.410 % Dose/g Tissue
same,"Biodistribution of 123I-IMP, Heart",[1]; [5],1.247 ± 0.209 % Dose/g Tissue
same,"Biodistribution of 123I-IMP, Kidney",[1]; [5],1.766 ± 0.678 % Dose/g Tissue
same,"Biodistribution of 123I-IMP, Liver",[1]; [5],0.688 ± 0.237 % Dose/g Tissue
same,"Biodistribution of 123I-IMP, Lung",[1]; [5],6.947 ± 1.486 % Dose/g Tissue
same,"Biodistribution of 123I-IMP, Pancreas",[1]; [5],1.911 ± 0.685 % Dose/g Tissue
same,"Biodistribution of 123I-IMP, Spleen",[1]; [5],0.213 ± 0.118 % Dose/g Tissue
same,"Biodistribution of 123I-IMP, Stomach",[1]; [5],0.377 ± 0.013 % Dose/g Tissue
same,"Biodistribution of 123I-IMP, Blood",[1]; [6],0.098 ± 0.044 % Dose/g Tissue
same,"Biodistribution of 123I-IMP, Brain",[1]; [6],1.529 ± 0.811 % Dose/g Tissue
same,"Biodistribution of 123I-IMP, Heart",[1]; [6],0.471 ± 0.209 % Dose/g Tissue
same,"Biodistribution of 123I-IMP, Kidney",[1]; [6],1.231 ± 0.632 % Dose/g Tissue
same,"Biodistribution of 123I-IMP, Liver",[1]; [6],1.185 ± 0.751 % Dose/g Tissue
same,"Biodistribution of 123I-IMP, Lung",[1]; [6],3.890 ± 2.223 % Dose/g Tissue
same,"Biodistribution of 123I-IMP, Pancreas",[1]; [6],1.877 ± 0.886 % Dose/g Tissue
same,"Biodistribution of 123I-IMP, Spleen",[1]; [6],0.886 ± 0.319 % Dose/g Tissue
same,"Biodistribution of 123I-IMP, Stomach",[1]; [6],0.782 ± 0.621 % Dose/g Tissue
same,"Biodistribution of 123I-IMP, Blood",[1]; [7],0.110 ± 0.002 % Dose/g Tissue
same,"Biodistribution of 123I-IMP, Brain",[1]; [7],1.449 ± 0.281 % Dose/g Tissue
same,"Biodistribution of 123I-IMP, Heart",[1]; [7],0.456 ± 0.039 % Dose/g Tissue
same,"Biodistribution of 123I-IMP, Kidney",[1]; [7],1.242 ± 0.146 % Dose/g Tissue
same,"Biodistribution of 123I-IMP, Liver",[1]; [7],1.639 ± 0.051 % Dose/g Tissue
same,"Biodistribution of 123I-IMP, Lung",[1]; [7],4.133 ± 0.079 % Dose/g Tissue
same,"Biodistribution of 123I-IMP, Pancreas",[1]; [7],1.478 ± 0.161 % Dose/g Tissue
same,"Biodistribution of 123I-IMP, Spleen",[1]; [7],1.193 ± 0.129 % Dose/g Tissue
same,"Biodistribution of 123I-IMP, Stomach",[1]; [7],1.058 ± 0.126 % Dose/g Tissue
same,Free fraction (%) of 123I-IMP in the blood of rats,"[2]; control group, 2 Minutes",56.75 ± 9.21%
same,Free fraction (%) of 123I-IMP in the blood of rats,"[2]; control group, 5 Minutes",50.70 ± 10.37%
same,Free fraction (%) of 123I-IMP in the blood of rats,"[2]; control group, 10 Minutes",45.91 ± 3.12%
same,Free fraction (%) of 123I-IMP in the blood of rats,"[2]; control group, 30 Minutes",27.29 ± 4.85%
same,Free fraction (%) of 123I-IMP in the blood of rats,"[2]; control group, 60 Minutes",16.77 ± 4.11%
same,Free fraction (%) of 123I-IMP in the blood of rats,"[2]; test group with verapamil loading, 2 Minutes",52.40 ± 6.00%
same,Free fraction (%) of 123I-IMP in the blood of rats,"[2]; test group with verapamil loading, 5 Minutes",56.52 ± 4.38%
same,Free fraction (%) of 123I-IMP in the blood of rats,"[2]; test group with verapamil loading, 10 Minutes",66.86 ± 6.34%
same,Free fraction (%) of 123I-IMP in the blood of rats,"[2]; test group with verapamil loading, 30 Minutes",38.03 ± 6.69%
same,Free fraction (%) of 123I-IMP in the blood of rats,"[2]; test group with verapamil loading, 60 Minutes",31.86 ± 8.23%
